# In patent US20240082416A1, “AMATOXIN ANALOGS AND USES THEREOF” (THE UNIVERSITY OF BRITISH COLUMBIA, priority 2020, published 2024):
# “And” between values parts separate entries of the source, which are not always exact repeats. Equal values may be shown once. Starred links: 1 amine or outer side, 2 acyl side, 3 side chain; linkers in the order of their positions; H or OH if unused. Positions of bridges follow the written chain, without caps; N, C: chain ends. Non-standard residues stand in square brackets, D forms with d. Residues, ends and D or L forms follow the SMILES beside them. X4 = CC(C)(C)OC(=O)/N=C(\N)N[C@@H]1C[C@@H](C(=O)[*:2])N([*:1])C1; Trp(2-yl) = O=C([C@H](Cc1c([*:3])[nH]c2ccccc12)N[*:1])[*:2]; Ile(4R-OH,5-OH) = C[C@H]([C@H](N)C(=O)O)[C@@H](O)CO; X3 = CC(=O)NCS[C@@H]1C[C@@H](C(=O)[*:2])N([*:1])C1; X5 = COC(=O)N[C@@H]1C[C@@H](C(=O)[*:2])N([*:1])C1
# Key:
# CHO cells = assay: Viability assay against CHO cells (MTT colorimetric assay); assay type: cell-based, Chinese hamster; settings: 72 h, replicates n = 1, 2, 3
# Protocol: (§1) (f) Cell culture: Cells were cultured in Minimum Essential Medium Eagle—Alpha Modification (α-MEM) or […] Dulbecco's Modified Eagle Medium (DMEM), purchased from Gibco. […] All cell culture plastic ware was obtained from Coming or Falcon. Cells were cultured at 37° C. in a humidified chamber with 5% CO2. When used in cell culture, DMSO was purified by filtration through a […] filter. All experiments were carried out in a laminar flow culture cabinet, unless otherwise noted.
# (§2) Immortalized CHO cells had been stored in liquid nitrogen. To revive cells, a 1-mL tube of the frozen cells in medium containing 10% DMSO was warmed in a 30° C. water bath and diluted with 9 mL of fresh media. Media contained 10% FBS and 100 U/mL penicillin and […] streptomycin, unless otherwise indicated. The cells were incubated in a T-25 flask at 37° C. at 5% CO2. After 24 hours, the medium was aspirated and replaced with fresh medium. When cells reached a level of 90-100% confluence, they were sub-cultured. […] Once the cells were detached from the tissue culture flask, 3-5 mL media was added to quench the trypsin and the mixture was transferred to a 10 mL centrifuge tube. The mixture was centrifuged for 5 min at […], and the supernatant was discarded. The cells were suspended in fresh medium, diluted as required, and transferred to a new culture flask.
# (§3) To assay cell viability, a nearly confluent tissue culture flask was trypsinized, and the cells were counted following treatment with Trypan blue, using a hemocytometer. The cells were then diluted to the appropriate stock concentrations in fresh medium and transferred in 100 μL to a 96-well plate using a multi-channel pipette. The number of cells plated varied from experiment to experiment. These were incubated at 37° C. and 5% CO2 for a 24-hour period to allow for adherence. The medium was aspirated, and fresh medium was added, which contained the desired additives in DMSO. The cells were then re-incubated for 72 h. At the completion of the experiment, a 100 μL aliquot of 25 mg/mL MTT in phosphate-buffered saline (PBS) was added to each well. The plate was incubated three hours further to allow for the formation of the formazan product in viable cells. The media was carefully aspirated, and the purple product was solubilized in DMSO. […] Data was processed in Microsoft Excel and GraphPad Prism. Experiments were performed in triplicates unless otherwise noted, and the error bars were calculated as the standard error of the mean.
# (§4) Each cell line was plated in a 96-well plate, with 100 μL of the stock solution per well (5000 cells per well) and incubated for 24 hours. […] The cells were incubated for 72 hours, at which point viability was assessed as described.
# Pol II = target: T1, Pol II (Homo sapiens, UniProt P24928); assay: In vitro transcription runoff assay using HeLaScribe nuclear extract; assay type: biochemical; settings: for IC50: IC50 (nM), Table 12, n = 3, high values estimated from activity at [I]=1.0 μM
# T1 construct: HeLaScribe® nuclear extract containing Pol II and all other transcription factors; purchased Promega; host or cells: HeLa nuclear extract (endogenous protein)
# Excerpt: (h) In vitro transcription assay of synthetic amanitins containing analogs of Hyp: Primers were purchased from IDT via standard phosphoramidite chemistry. dNTP and rNTP were purchased from Thermofisher. GoTaq polymerase and HeLaScribe*Nuclear Extract in vitro Transcription System was purchased from Promega. Taq polymerase was purchased from NEB. [^32P] α-dGTP (3000 Ci/mmol 10 mCi/ml EasyTide) and [^32P] α-GTP (3000 Ci/mmol 10 mCi/ml EasyTide) were purchased from Perkin Elmer. QIAquick PCR purifcation kit was purchased from Qiagen. AcGFP1-N1 was a gift (Addgene plasmid #54705; http://n2t.net/addgene:54705; RRID:Addgene_54705). DNA Primer sequences were:
# The DNA template for transcription runoff was synthesized by PCR with template pAcGFP-N1, and primers P1 and P2. To a final volume of 20 μL, 1 x GoTaq Buffer, 250 μM of each dNTP, 500 nM of each primers P1 and P2, […] pAcGFP-N1 and 0.05 U/μL GoTaq were employed to thermocycle for 30 cycles (30 s at 95° C., 30 s at 50° C. and 60 s at 72° C., Bio-Rad). A 1 μL aliquot of the amplified solution was resolved with 6×DNA loading dye in a 1% agarose gel containing […] and then visualized using GelDoc XR imager (Bio-Rad). Purification was completed via QIAquick PCR purification kit (Qiagen). The radioactive chromatographic standard was synthesized by PCR with template pAcGFP-N1, and primers P3 and P4. To a final volume of 50 μL, 1 x Thermopol Buffer, 200 μM of each dNTP, 500 nM of each primers P3 and P4, 10 pg/μL pAcGFP-N1 and 0.02 U/μL Vent polymerase, 1 μL [^32P] α-dGTP were employed to thermocycle for 30 cycles (30 s at 95° C., 30 s at 62° C. and 30 s at 72° C., Bio-Rad). A 1 μL aliquot of the amplified solution was resolved with 6×DNA loading dye in 8% denaturing PAGE and then visualized by autoradiography via the Typhoon 9200 imager (Molecular namics-Amersham-GE). Purification was completed via QIAquick PCR purification kit (Qiagen). The transcription runoff assay was modified from HeLaScribe® Nuclear Extract in vitro Transcription System (Promega). […]. The pellet was resolved by 8% denaturing PAGE and then visualized by autoradiography via the Typhoon 9200 imager (Molecular dynamics-Amersham-GE). Dosimetry was calculated by ImageJ, and the 3 parameter logistic fit was completed by Origin 2019 (OriginLab). […]
# All data were presented in mean±standard deviation (n=3).
# [1] = Viability assay against CHO cells (MTT colorimetric assay); assay type: cell-based, Chinese hamster; settings: Chinese hamster, CHO cells, 72 h, replicates n = 1, 2, 3, read-out: % viable cells; for viability at 72 h, 1.25e-06 M: 1.25e-006 M; for viability at 72 h, 1.56e-07 M: 1.56e-007 M; for viability at 72 h, 2.5e-06 M: 2.5e-006 M; for viability at 72 h, 5e-06 M: 5e-006 M; for viability at 72 h, 6.25e-07 M: 6.25e-007 M; for viability at 72 h, 7.8e-08 M: 7.8e-008 M
# Protocol: as §1, §2, §3, §4
compound,measurement,setting,value
"CC[C@H](C)[C@@H]1NC(=O)CNC(=O)[C@@H]2Cc3c([nH]c4ccccc34)SC[C@H](NC(=O)CNC1=O)C(=O)N[C@@H](CC(N)=O)C(=O)N1C[C@H](SCNC(C)=O)C[C@H]1C(=O)N[C@@H]([C@@H](C)[C@@H](O)CO)C(=O)N2 [Compound 8, SAcm-Pro-amanitin] (cyclo(CN[X3][Ile(4R-OH,5-OH)][Trp(2-yl)]GIG); thioether 1-5)",% viable cells,"CHO cells; 1e-005 M, listed as SAcm-Pro-amanitin (8)",90% and 99%
same,% viable cells,"CHO cells; 1.25e-006 M, listed as SAcm-Pro-amanitin (8)",85% and 92% and 106%
same,% viable cells,"CHO cells; 1.56e-007 M, listed as SAcm-Pro-amanitin (8)",94% and 93% and 113%
same,% viable cells,"CHO cells; 2e-005 M, listed as SAcm-Pro-amanitin (8)",110% and 105% and 99%
same,% viable cells,"CHO cells; 2.5e-006 M, listed as SAcm-Pro-amanitin (8)",87% and 92% and 105%
same,% viable cells,"CHO cells; 3.125e-007 M, listed as SAcm-Pro-amanitin (8)",88% and 93% and 110%
same,% viable cells,"CHO cells; 5e-006 M, listed as SAcm-Pro-amanitin (8)",86% and 89%
same,% viable cells,"CHO cells; 6.25e-007 M, listed as SAcm-Pro-amanitin (8)",93% and 90% and 108%
same,IC50,Pol II,> 1000 nM
"CC[C@H](C)[C@@H]1NC(=O)CNC(=O)[C@@H]2Cc3c([nH]c4ccccc34)SC[C@H](NC(=O)CNC1=O)C(=O)N[C@@H](CC(N)=O)C(=O)N1C[C@H](NC(=O)OC)C[C@H]1C(=O)N[C@@H]([C@@H](C)[C@@H](O)CO)C(=O)N2 [Compound 32, MeOCONH-Pro-amanitin] (cyclo(CN[X5][Ile(4R-OH,5-OH)][Trp(2-yl)]GIG); thioether 1-5)","viability at 72 h, 1e-05 M",[1]; 1e-005 M,86%
same,"viability at 72 h, 1.25e-06 M",[1],89%
same,"viability at 72 h, 1.56e-07 M",[1],88%
same,"viability at 72 h, 2e-05 M",[1]; 2e-005 M,99%
same,"viability at 72 h, 2.5e-06 M",[1],88%
same,"viability at 72 h, 3.125e-07 M",[1]; 3.125e-007 M,89%
same,"viability at 72 h, 5e-06 M",[1],92%
same,"viability at 72 h, 6.25e-07 M",[1],91%
same,"viability at 72 h, 7.8e-08 M",[1],88%
same,% viable cells,"CHO cells; 1e-005 M, listed as MeOCOHN-Pro-amanitin (32)",96%
same,% viable cells,"CHO cells; 1.25e-006 M, listed as MeOCOHN-Pro-amanitin (32)",93%
same,% viable cells,"CHO cells; 1.56e-007 M, listed as MeOCOHN-Pro-amanitin (32)",87% and 96%
same,% viable cells,"CHO cells; 2e-005 M, listed as MeOCOHN-Pro-amanitin (32)",103% and 102%
same,% viable cells,"CHO cells; 3.125e-007 M, listed as MeOCOHN-Pro-amanitin (32)",87% and 94%
same,% viable cells,"CHO cells; 5e-006 M, listed as MeOCOHN-Pro-amanitin (32)",87%
same,% viable cells,"CHO cells; 6.25e-007 M, listed as MeOCOHN-Pro-amanitin (32)",98%
same,% viable cells,"CHO cells; 7.8e-008 M, listed as MeOCOHN-Pro-amanitin (32)",97%
"CC[C@H](C)[C@@H]1NC(=O)CNC(=O)[C@@H]2Cc3c([nH]c4ccccc34)SC[C@H](NC(=O)CNC1=O)C(=O)N[C@@H](CC(N)=O)C(=O)N1C[C@H](N/C(N)=N/C(=O)OC(C)(C)C)C[C@H]1C(=O)N[C@@H]([C@@H](C)[C@@H](O)CO)C(=O)N2 [Compound 9, Boc-Gdn-Pro-amanitin] (cyclo(CN[X4][Ile(4R-OH,5-OH)][Trp(2-yl)]GIG); thioether 1-5)","viability at 72 h, 1.25e-06 M",[1],84%
same,"viability at 72 h, 1.56e-07 M",[1],87%
same,"viability at 72 h, 2.5e-06 M",[1],86%
same,"viability at 72 h, 3.9e-08 M",[1]; 3.9e-008 M,88%
same,"viability at 72 h, 5e-06 M",[1],86%
same,"viability at 72 h, 6.25e-07 M",[1],84%
same,"viability at 72 h, 7.8e-08 M",[1],85%
same,% viable cells,"CHO cells; 1e-005 M, listed as Boc-Gdn-Pro-amanitin (9)",103% and 98% and 119%
same,% viable cells,"CHO cells; 1.25e-006 M, listed as Boc-Gdn-Pro-amanitin (9)",89% and 100%
same,% viable cells,"CHO cells; 1.56e-007 M, listed as Boc-Gdn-Pro-amanitin (9)",97%
same,% viable cells,"CHO cells; 2.5e-006 M, listed as Boc-Gdn-Pro-amanitin (9)",100%
same,% viable cells,"CHO cells; 3.125e-007 M, listed as Boc-Gdn-Pro-amanitin (9)",82% and 90% and 103%
same,% viable cells,"CHO cells; 3.9e-008 M, listed as Boc-Gdn-Pro-amanitin (9)",102%
same,% viable cells,"CHO cells; 5e-006 M, listed as Boc-Gdn-Pro-amanitin (9)",104%
same,% viable cells,"CHO cells; 6.25e-007 M, listed as Boc-Gdn-Pro-amanitin (9)",102%
same,% viable cells,"CHO cells; 7.8e-008 M, listed as Boc-Gdn-Pro-amanitin (9)",101%
same,IC50,Pol II,> 600 nM
same,inhibitory effects,Pol II; up to 1 μM concentrations,did not exhibit any noticeable inhibitory effects
